Legend:
Assay type in all cases: cell-based
C2C12 cells [1] = test: Cellular oxidative stress (4HNE assay) in C2C12 cells with H2O2 (FIG. 6C); settings: 24 hours with concomitant 400 uM H2O2, BHB 30 ug/mL
Protocol: (§1) Treatments and cells. 6-hour and 24-hour cell culture treatments were with one of the following compounds: 1. Control or “vehicle” (DMSO+phosphate-buffered saline only); 2. Niagen® (nicotinamide riboside (NR)(5 μg/mL); 3. BHB (beta hydroxybutyrate) (30 ug/mL); 4. CBD (cannabidiol) (5 ug/mL); 5. Olive leaf (5 ug/mL); 6. Dynamine (1 ug/mL); 7. Selenium (2 ug/mL); 8. Tributyrin (5 ug/mL)
(§2) Treatment materials and methods. C2C12 cells were treated with compounds 1-8 as listed above for 6 hours without hydrogen peroxide (H2O2) (termed “unperturbed cells” throughout); or cells were treated with compounds 1-8 above for 24 hours with a concomitant 400 uM hydrogen peroxide (H2O2).
Oxidative stress was assessed using the 4HNE assay which is a product of cellular lipid oxidation (see e.g., Am J Physiol Cell Physiol. 2016 Oct. 1; 311(4): C537-C543).

C2C12 cells [2] = test: Autophagy flux (LC3II/I ratio) in C2C12 cells co-incubated with H2O2 (FIG. 6A); settings: 24 hours with concomitant 400 uM H2O2, BHB 30 ug/mL, CBD 5 ug/mL, selenium 2 ug/mL
Protocol: as §1, §2
The C2C12 line resembles mature muscle cells given that they are multinucleated and are past the rapid growth/proliferation phase.
Autophagy flux (or activity) was assessed by assaying the LC3II/I ratio. This assay has been deemed the “gold standard” in autophagy monitoring (see e.g., Autophagy, 2007 November-December; 3(6):542-5).

C2C12 cells [3] = test: Total antioxidant capacity (Trolox equivalent antioxidant capacity, TEAC) in C2C12 cells with H2O2 (FIG. 5B); settings: 24 hours with concomitant 400 uM H2O2, selenium 2 ug/mL, tributyrin 5 ug/mL
Protocol: Treatments and cells. 6-hour and 24-hour cell culture treatments were with one of the following compounds: 1. Control or “vehicle” (DMSO+phosphate-buffered saline only); 2. […]® (nicotinamide riboside (NR)(5 μg/mL); 3. BHB (beta hydroxybutyrate) (30 ug/mL); 4. CBD (cannabidiol) (5 ug/mL); 5. Olive leaf (5 ug/mL); 6. Dynamine (1 ug/mL); 7. […] Tributyrin (5 ug/mL) Treatment materials and methods. C2C12 cells were treated with compounds 1-8 as listed above for 6 hours without hydrogen peroxide (H2O2) (termed “unperturbed cells” throughout); or cells were treated with compounds 1-8 above for 24 hours with a concomitant 400 uM hydrogen peroxide (H2O2). Total antioxidant capacity was assessed using a Trolox equivalent antioxidant capacity (TEAC) assay.

Row | SMILES | cellular oxidative stress (4HNE) (C2C12 cells [1]) | autophagy (LC3II/I ratio) (C2C12 cells [2]) | total antioxidant capacity (Trolox) (C2C12 cells [3]) | total antioxidant capacity (Trolox) (C2C12 cells [3]; listed as Selenium) | total antioxidant capacity (Trolox) (C2C12 cells [3]; listed as Tributyrin)
1 | CC(O)CC(=O)O (stereo not drawn) [BHB, beta hydroxybutyrate] | decrease cellular oxidative stress | increased autophagy | – | – | –
2 | C=C(C)[C@@H]1CCC(C)=C[C@H]1c1c(O)cc(CCCCC)cc1O [CBD, cannabidiol] | – | increased autophagy | – | – | –
3 | [Se] [selenium, Selenium] | – | increased autophagy | increase (e.g., restore) total antioxidant activity | increase or restore antioxidant capacity | –
4 | CCCC(=O)OCC(COC(=O)CCC)OC(=O)CCC [tributyrin, Tributyrin] | – | – | increase (e.g., restore) total antioxidant activity | – | increase or restore antioxidant capacity
